Experimental data as given in ChEMBL document CHEMBL4304792, “Cinnamonitrile Adjuvants Restore Susceptibility to β-Lactams against Methicillin-Resistant Staphylococcus aureus” (ACS Med Chem Lett, 2019).
In brackets after ≈: the same amount, converted by molar mass.

Experiments:
Staphylococcus aureus [1] = test: Potentiation of oxacillin induced antibacterial activity against Staphylococcus aureus NRS70 assessed as oxacillin MIC at 20 uM measured after 16 to 20 hrs in presence of 2% NaCl by microdilution broth method (reference value: 64 mg/L); type: functional
Staphylococcus aureus [2] = test: Antibacterial activity against Staphylococcus aureus NRS70 measured after 16 to 20 hrs in absence of 2% NaCl by microdilution broth method

Compound	MIC (Staphylococcus aureus [1]) [µg/mL]	MIC (Staphylococcus aureus [2]) [µg/mL]
COc1ccc(Oc2cccc(C=C(C#N)C#N)c2)cc1	64	≥ 64
N#CC(C#N)=Cc1cc(Cc2ccc(Cl)c(Cl)c2)ccc1F	4	8 (≈ 24.2 µM)
N#CC(C#N)=Cc1cccc(Cc2ccc(Cl)c(Cl)c2)c1	64	≥ 64
CS(=O)(=O)/C(C#N)=C/c1cc(Cc2ccc(C(F)(F)F)cc2)ccc1F	64	32 (≈ 83.5 µM)
N#C/C(=C\c1cccc(Oc2ccc(Cl)c(Cl)c2)c1)C(N)=O	64	8 (≈ 24 µM)
COc1c(/C=C(\C#N)S(C)(=O)=O)cccc1Cc1ccc(Cl)c(Cl)c1	8	32 (≈ 80.7 µM)
Cc1ccc(Oc2cccc(C=C(C#N)C#N)c2)cc1	64	≥ 64
N#C/C(=C\c1cccc(Oc2ccc(Cl)c(Cl)c2)c1)c1ccccn1	64	≥ 64
CC(C)NC(=O)c1ccc(Cc2ccc(F)c(/C=C(\C#N)S(C)(=O)=O)c2)cc1	64	≥ 64
COc1ccc(Cc2ccc(Cl)c(Cl)c2)c(OC)c1/C=C(\C#N)S(C)(=O)=O	64	16 (≈ 37.5 µM)
N#C/C(=C\c1cccc(Oc2ccc(Cl)c(Cl)c2)c1)c1cccs1	64	≥ 64
N#CC(C#N)=Cc1cccc(Oc2cccc(C(F)(F)F)c2)c1	64	32 (≈ 102 µM)
CS(=O)(=O)/C(C#N)=C/c1cc(Cc2ccc(Cl)c(Cl)c2)ccc1N1CCOCC1	16	≥ 64
CCOc1ccc(Cc2ccc(Cl)c(Cl)c2)cc1/C=C(\C#N)S(C)(=O)=O	16	≥ 64
CS(=O)(=O)/C(C#N)=C/c1cc(Cc2cccc(C(F)(F)F)c2)ccc1F	64	≥ 64
N#CC(C#N)=Cc1cccc(Oc2cc(Cl)cc(Cl)c2)c1	64	16 (≈ 50.8 µM)
N#CC(C#N)=Cc1cccc(Oc2ccc(F)cc2)c1	64	≥ 64
CS(=O)(=O)/C(C#N)=C/c1cc(Cc2ccc(OC(F)(F)F)cc2)ccc1F	64	≥ 64
N#CC(C#N)Cc1cccc(Oc2ccc(Cl)c(Cl)c2)c1	64	32 (≈ 101 µM)
COc1ccc(Cc2ccc(Cl)c(Cl)c2)cc1C=C(C#N)C#N	4	≥ 64

Compound	MIC (Staphylococcus aureus [1]) [µg/mL]	MIC (Staphylococcus aureus [2]) [µg/mL]
N#C/C(=C\c1cccc(Oc2ccc(Cl)c(Cl)c2)c1)c1ccncc1	64	≥ 64
CS(=O)(=O)/C(C#N)=C/c1cc(Cc2cccc(OC(F)(F)F)c2)ccc1F	64	≥ 64
N#CC(C#N)=Cc1cccc(Cc2cccc(Cl)c2)c1	64	≥ 64
N#CC(C#N)=Cc1cccc(C(=O)Nc2ccc(Cl)c(Cl)c2)c1	16	≥ 64
COc1ccc(C=C(C#N)C#N)cc1Oc1ccc(Cl)c(Cl)c1	64	≥ 64
N#CC(C#N)=Cc1cccc(Cc2ccc(Cl)c(Cl)c2)c1F	2	8 (≈ 24.2 µM)
COc1ccc(Cc2ccc(OC(F)(F)F)c(/C=C(\C#N)S(C)(=O)=O)c2)cc1OC	64	≥ 64
COc1ccc(Cc2ccc(F)c(/C=C(\C#N)S(C)(=O)=O)c2)cc1C(F)(F)F	64	≥ 64
N#CC(C#N)=Cc1cccc(Oc2ccc(Cl)cc2)c1	64	32 (≈ 114 µM)
N#C/C(=C\c1cccc(Oc2ccc(Cl)c(Cl)c2)c1)c1nc2ccccc2s1	64	≥ 64
CC(=C(C#N)C#N)c1cccc(Cc2ccc(Cl)c(Cl)c2)c1	64	≥ 64
N#CC(C#N)=Cc1cccc(S(=O)(=O)c2ccc(Cl)c(Cl)c2)c1	64	16 (≈ 44 µM)
N#CC(C#N)=Cc1cccc(Oc2ccc(Cl)c(Cl)c2)c1	64	32 (≈ 102 µM)
CS(=O)(=O)/C(C#N)=C/c1cc(-c2cnc3ccccc3n2)ccc1F	64	≥ 64
Cc1ccc(C(=O)/C(C#N)=C/c2cccc(Oc3ccc(Cl)c(Cl)c3)c2)cc1	64	≥ 64
CS(=O)(=O)/C(C#N)=C/c1cc(Cc2ccc(SC(F)(F)F)cc2)ccc1F	64	≥ 64
CS(=O)(=O)/C(C#N)=C/c1cccc(Cc2ccc(Cl)c(Cl)c2)c1F	2	8 (≈ 20.8 µM)
N#C/C(=C\c1cc(Cc2ccc(Cl)c(Cl)c2)ccc1F)C(=O)C1CC1	1	≥ 64
CS(=O)(=O)/C(C#N)=C/c1cccc(Oc2ccc(Cl)c(Cl)c2)c1	64	16 (≈ 43.4 µM)

More lines, in order of falling MIC (Staphylococcus aureus [1]), values ahead:

MIC (Staphylococcus aureus [1]) [µg/mL]	MIC (Staphylococcus aureus [2]) [µg/mL]	Compound
64	≥ 64	N#CC(C#N)=Cc1cccc(Cc2cc(F)c(F)cc2F)c1
64	≥ 64	CS(=O)(=O)/C(C#N)=C/c1cc(Cc2ccc(F)c(C(F)(F)F)c2)ccc1F
64	≥ 64	Cc1ccc(S(=O)(=O)Nc2cccc(C=C(C#N)C#N)c2)cc1
64	≥ 64	COc1ccc(OC)c(Cc2cccc(C=C(C#N)C#N)c2)c1
64	≥ 64	N#C/C(=C\c1cccc(Oc2ccc(Cl)c(Cl)c2)c1)C(=O)O
64	≥ 64	N#CC(C#N)=Cc1cccc(Oc2ccc(Cl)nn2)c1
64	≥ 64	CS(=O)(=O)/C(C#N)=C/c1cc(-c2ccc3ccccc3n2)ccc1F
64	≥ 64	N#CC(C#N)=Cc1cccc(Cc2ccc(Cl)c(F)c2)c1
64	≥ 64	CS(=O)(=O)/C(C#N)=C/c1cc(Cc2ccc(F)c(F)c2)ccc1F
64	32 (≈ 114 µM)	N#CC(C#N)=Cc1ccc(Oc2ccc(Cl)cc2)cc1
64	32 (≈ 130 µM)	N#CC(C#N)=Cc1cccc(Oc2ccccc2)c1
64	≥ 64	N#CC(C#N)=Cc1cccc(Oc2ncc(Cl)c(Cl)n2)c1
64	32 (≈ 79.7 µM)	CS(=O)(=O)/C(C#N)=C/c1cc(Cc2ccc(C(F)(F)F)c(F)c2)ccc1F
64	≥ 64	N#CC(C#N)=Cc1cccc(Sc2ccc(Cl)c(Cl)c2)c1
64	≥ 64	CS(=O)(=O)/C(C#N)=C/c1cc(-c2ccnc3ccccc23)ccc1F
64	≥ 64	N#CC(C#N)=Cc1cccc(Cc2ccc(F)c(Cl)c2)c1
64	32 (≈ 75.2 µM)	CS(=O)(=O)/C(C#N)=C/c1cc(Cc2ccc3c(c2)OCO3)ccc1OC(F)(F)F
16	32 (≈ 73.9 µM)	N#C/C(=C\c1cc(-c2ccc(Cl)c(Cl)c2)ccc1F)S(=O)(=O)c1ccccn1
16	32 (≈ 90.6 µM)	CS(=O)(=O)/C(C#N)=C/c1cccc(-c2ccc(Cl)c(Cl)c2)n1
4	32 (≈ 80.7 µM)	COc1ccc(Cc2ccc(Cl)c(Cl)c2)cc1/C=C(\C#N)S(C)(=O)=O
